Experimental findings from ChEMBL document CHEMBL1629433, “Synthesis and pharmacological evaluation of the stereoisomers of 3-carba cyclic-phosphatidic acid” (Bioorg Med Chem Lett, 2010) are described below.

Activity calls are given as the source filed them. The rule behind the calls is not given here.

In experiment [1] the target is T1, Autotaxin (Homo sapiens, UniProt Q13822). Nature of the experiment: Inhibition of recombinant ATX mediated hydrolysis of FS-3.
The next experiment relates to B16-F10. As to the kind of experiment: Antitumor activity against mouse B16-F10 cells grafted in C57/BL6 mouse assessed as inhibition of lung metastases of cancer cells at 0.5 mg/kg/day, ip administered for 10 days and measured on day 21. It counts as functional, organism-based.
Experiment [2] has as its target Lysophosphatidic acid receptor 5 (Homo sapiens) (UniProt Q9H1C0). Nature of the experiment: Agonist activity at LPA5 receptor expressed in rat B103 cells assessed as calcium mobilization at >1 uM. It counts as functional, cell-based.
Experiment [3] addresses T1, Autotaxin. Nature of the experiment: Inhibition of recombinant ATX mediated hydrolysis of FS-3 at 0.5 to 2 times IC50.

Lysophosphatidic acid receptor 5 (Homo sapiens), sequence (Q9H1C0 whole entry): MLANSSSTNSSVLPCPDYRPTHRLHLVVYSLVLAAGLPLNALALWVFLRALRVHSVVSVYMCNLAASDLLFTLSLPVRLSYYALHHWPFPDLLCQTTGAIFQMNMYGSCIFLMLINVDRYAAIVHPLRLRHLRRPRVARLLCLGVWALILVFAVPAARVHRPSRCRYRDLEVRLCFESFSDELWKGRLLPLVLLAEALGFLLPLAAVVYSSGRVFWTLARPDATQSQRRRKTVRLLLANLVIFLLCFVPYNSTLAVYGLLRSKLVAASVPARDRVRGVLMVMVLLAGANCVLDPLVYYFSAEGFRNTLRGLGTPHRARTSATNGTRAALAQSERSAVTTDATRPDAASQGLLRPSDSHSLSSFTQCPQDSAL

Usually Ki stands for a measure of affinity in units of concentration, obtained from inhibition or displacement. Consider `CCCCCCCCCCCCCCCCCC(=O)OC[C@@H]1CCP(=O)(O)O1`, for which the Ki on Autotaxin [1] came to 1600 nM. Moreover, the inhibition result with B16-F10 and at Autotaxin [3] was “Active” each time. Further, the result in experiment [2] was Active.
As to `CCCCCCCCCCCCCCCCCC(=O)OC[C@H]1CCP(=O)(O)O1`, at Autotaxin [1], the Ki worked out at 800 nM. Besides, the inhibition result in the experiment with B16-F10 and on Autotaxin [3] was “Active” in each case. Besides, the result in experiment [2] was Active.
With `CCCCCCCCCCCCCCCCCC(=O)OCC1CCP(=O)(O)O1` (racemic), the inhibition result in the experiment on B16-F10 was “Active”.
